# What was measured:
# Type in all cases: biochemical
# PI3Kγ = target: T1, PI3Kγ (Homo sapiens, UniProt P48736); assay: In vitro determination of the PI3K enzyme inhibitory activity in the cell free assay (ADP-Glo Kinase Assay), PI3Kγ; details: ATP 30 μM, read-out: PI3K gamma inhibition
# T1 construct: purchased Millipore Ltd (Billerica, Mass.)
# How it was run: (§1)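 Human recombinant PI3K isoforms with PI/PS lipid substrates (50 μM in 2× buffer, Tris pH 7.5, DTT) were run 60 min at room temperature. Final ATP was 50 μM for α, 100 μM for β, 30 μM for γ and 80 μM for δ. ADP formation was read by ADP-Glo luminescence, and IC50 came from a four-parameter logistic fit.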
# PI3Kβ = target: T2, PI3Kβ (Homo sapiens, UniProt P42338); assay: In vitro determination of the PI3K enzyme inhibitory activity in the cell free assay (ADP-Glo Kinase Assay), PI3Kβ; details: ATP 100 μM, read-out: PI3K beta inhibition
# T2 construct: purchased Millipore Ltd (Billerica, Mass.)
# How it was run: as §1
# PI3Kα = target: T3, PI3Kα (Homo sapiens, UniProt P42336); assay: In vitro determination of the PI3K enzyme inhibitory activity in the cell free assay (ADP-Glo Kinase Assay), PI3Kα; details: ATP 50 μM, read-out: PI3K alpha inhibition
# T3 construct: purchased Millipore Ltd (Billerica, Mass.)
# How it was run: as §1
# PI3Kδ = target: T4, PI3Kδ (Homo sapiens, UniProt O00329); assay: In vitro determination of the PI3K enzyme inhibitory activity in the cell free assay (ADP-Glo Kinase Assay), PI3Kδ; details: ATP 80 μM, read-out: PI3K delta inhibition
# T4 construct: purchased Millipore Ltd (Billerica, Mass.)
# How it was run: as §1
# T1 sequence (P48736 whole entry): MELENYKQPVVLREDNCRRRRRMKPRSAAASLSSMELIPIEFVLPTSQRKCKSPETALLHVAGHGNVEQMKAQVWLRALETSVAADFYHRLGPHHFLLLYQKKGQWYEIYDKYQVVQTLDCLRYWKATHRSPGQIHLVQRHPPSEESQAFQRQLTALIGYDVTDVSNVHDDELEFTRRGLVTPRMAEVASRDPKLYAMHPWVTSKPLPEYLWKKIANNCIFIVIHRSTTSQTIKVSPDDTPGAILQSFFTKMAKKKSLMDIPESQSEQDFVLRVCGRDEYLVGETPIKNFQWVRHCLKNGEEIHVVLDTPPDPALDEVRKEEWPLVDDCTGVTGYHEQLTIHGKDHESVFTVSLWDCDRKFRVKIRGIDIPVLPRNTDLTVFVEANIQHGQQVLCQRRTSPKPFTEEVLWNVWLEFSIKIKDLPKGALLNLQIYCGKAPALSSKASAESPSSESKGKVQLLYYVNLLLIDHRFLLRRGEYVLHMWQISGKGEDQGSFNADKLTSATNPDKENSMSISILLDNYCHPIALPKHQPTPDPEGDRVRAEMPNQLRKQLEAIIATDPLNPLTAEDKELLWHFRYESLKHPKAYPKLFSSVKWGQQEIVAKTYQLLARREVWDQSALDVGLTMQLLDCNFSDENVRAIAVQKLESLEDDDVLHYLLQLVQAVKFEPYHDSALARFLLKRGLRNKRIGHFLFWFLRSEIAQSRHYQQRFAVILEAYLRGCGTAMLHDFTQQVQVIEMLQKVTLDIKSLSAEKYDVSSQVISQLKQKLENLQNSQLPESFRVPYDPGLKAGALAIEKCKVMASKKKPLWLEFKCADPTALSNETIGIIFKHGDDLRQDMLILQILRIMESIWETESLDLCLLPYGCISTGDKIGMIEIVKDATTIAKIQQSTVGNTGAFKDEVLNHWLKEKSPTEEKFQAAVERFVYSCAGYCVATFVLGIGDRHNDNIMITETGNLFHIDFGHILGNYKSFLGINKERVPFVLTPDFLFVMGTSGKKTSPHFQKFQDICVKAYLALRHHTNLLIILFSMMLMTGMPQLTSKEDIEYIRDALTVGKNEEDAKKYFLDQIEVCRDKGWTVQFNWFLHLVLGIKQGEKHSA
# T3 sequence (P42336 whole entry): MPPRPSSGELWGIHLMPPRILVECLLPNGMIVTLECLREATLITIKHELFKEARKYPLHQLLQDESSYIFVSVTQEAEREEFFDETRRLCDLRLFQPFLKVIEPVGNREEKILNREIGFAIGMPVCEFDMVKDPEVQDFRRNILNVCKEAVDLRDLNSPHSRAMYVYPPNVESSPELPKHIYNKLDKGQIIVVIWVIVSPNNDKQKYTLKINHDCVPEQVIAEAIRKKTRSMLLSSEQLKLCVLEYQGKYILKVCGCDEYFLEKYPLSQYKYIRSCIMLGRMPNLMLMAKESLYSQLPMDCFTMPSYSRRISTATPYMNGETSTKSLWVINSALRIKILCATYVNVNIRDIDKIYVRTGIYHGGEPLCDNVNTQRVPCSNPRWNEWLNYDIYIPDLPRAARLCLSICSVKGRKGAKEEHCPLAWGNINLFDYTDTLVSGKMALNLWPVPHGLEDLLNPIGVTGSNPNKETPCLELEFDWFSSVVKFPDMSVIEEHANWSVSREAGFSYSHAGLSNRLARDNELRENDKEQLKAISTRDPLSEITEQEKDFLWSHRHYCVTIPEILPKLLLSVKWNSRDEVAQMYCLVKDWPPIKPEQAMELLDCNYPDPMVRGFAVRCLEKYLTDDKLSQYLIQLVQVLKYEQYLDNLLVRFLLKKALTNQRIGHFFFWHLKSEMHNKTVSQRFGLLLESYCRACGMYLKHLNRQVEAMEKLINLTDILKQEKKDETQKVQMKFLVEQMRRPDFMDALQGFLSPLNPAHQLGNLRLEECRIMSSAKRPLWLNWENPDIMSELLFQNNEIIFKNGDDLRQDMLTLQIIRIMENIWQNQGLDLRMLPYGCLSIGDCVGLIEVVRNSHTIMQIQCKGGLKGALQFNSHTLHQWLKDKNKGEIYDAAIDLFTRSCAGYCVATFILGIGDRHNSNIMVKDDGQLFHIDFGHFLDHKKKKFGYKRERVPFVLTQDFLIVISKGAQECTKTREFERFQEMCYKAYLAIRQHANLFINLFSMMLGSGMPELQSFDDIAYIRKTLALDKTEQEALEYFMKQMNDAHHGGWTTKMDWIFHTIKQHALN
# T3 sequence (P27986 whole entry partner): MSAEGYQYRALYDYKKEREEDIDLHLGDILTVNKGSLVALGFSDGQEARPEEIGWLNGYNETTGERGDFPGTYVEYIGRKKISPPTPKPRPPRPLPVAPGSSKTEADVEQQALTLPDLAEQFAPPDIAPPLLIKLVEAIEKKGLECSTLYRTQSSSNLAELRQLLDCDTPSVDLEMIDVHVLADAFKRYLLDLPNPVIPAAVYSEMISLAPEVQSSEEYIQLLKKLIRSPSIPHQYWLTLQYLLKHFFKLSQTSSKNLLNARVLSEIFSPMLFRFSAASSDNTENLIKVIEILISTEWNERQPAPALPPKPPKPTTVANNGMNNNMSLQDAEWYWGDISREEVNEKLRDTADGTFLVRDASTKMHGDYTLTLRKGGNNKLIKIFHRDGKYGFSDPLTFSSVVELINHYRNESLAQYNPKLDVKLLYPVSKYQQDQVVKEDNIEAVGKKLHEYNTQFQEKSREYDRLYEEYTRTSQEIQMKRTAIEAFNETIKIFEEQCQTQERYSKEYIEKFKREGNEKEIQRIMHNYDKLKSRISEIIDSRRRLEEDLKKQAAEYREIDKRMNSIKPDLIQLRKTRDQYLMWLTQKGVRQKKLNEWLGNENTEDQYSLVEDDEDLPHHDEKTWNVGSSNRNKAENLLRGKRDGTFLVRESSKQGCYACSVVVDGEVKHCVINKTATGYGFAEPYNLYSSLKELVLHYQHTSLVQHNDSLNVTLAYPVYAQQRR
# T2 sequence (P42338 whole entry): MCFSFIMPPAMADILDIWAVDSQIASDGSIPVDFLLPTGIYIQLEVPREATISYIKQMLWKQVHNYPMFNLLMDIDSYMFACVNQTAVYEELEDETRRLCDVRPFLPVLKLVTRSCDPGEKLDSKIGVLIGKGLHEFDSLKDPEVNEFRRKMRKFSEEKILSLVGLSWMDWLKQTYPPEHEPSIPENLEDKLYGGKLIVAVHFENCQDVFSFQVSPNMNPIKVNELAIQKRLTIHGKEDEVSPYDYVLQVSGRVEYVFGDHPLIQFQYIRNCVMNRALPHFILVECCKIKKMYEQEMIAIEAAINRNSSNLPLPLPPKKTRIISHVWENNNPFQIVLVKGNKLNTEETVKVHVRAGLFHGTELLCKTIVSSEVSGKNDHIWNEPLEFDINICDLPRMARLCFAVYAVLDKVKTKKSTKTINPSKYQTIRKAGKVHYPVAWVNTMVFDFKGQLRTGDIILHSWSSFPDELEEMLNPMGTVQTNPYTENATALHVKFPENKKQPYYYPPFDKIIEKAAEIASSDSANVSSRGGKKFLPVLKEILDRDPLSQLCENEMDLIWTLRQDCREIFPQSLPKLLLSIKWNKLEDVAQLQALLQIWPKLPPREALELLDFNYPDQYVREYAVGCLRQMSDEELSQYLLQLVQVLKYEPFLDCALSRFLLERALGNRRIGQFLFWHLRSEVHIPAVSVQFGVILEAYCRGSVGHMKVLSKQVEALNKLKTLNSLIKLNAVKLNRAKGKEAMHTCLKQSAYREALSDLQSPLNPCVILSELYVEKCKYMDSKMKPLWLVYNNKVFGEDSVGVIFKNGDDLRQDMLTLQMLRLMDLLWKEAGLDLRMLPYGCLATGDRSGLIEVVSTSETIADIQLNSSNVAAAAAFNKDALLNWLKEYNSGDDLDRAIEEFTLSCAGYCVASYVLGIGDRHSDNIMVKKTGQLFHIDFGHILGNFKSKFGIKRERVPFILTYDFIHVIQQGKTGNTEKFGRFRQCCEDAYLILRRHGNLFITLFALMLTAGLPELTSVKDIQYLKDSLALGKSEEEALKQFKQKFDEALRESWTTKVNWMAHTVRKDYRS
# T2 sequence (P27986 whole entry partner): as the sequence (P27986 whole entry partner) above
# T4 sequence (O00329 whole entry): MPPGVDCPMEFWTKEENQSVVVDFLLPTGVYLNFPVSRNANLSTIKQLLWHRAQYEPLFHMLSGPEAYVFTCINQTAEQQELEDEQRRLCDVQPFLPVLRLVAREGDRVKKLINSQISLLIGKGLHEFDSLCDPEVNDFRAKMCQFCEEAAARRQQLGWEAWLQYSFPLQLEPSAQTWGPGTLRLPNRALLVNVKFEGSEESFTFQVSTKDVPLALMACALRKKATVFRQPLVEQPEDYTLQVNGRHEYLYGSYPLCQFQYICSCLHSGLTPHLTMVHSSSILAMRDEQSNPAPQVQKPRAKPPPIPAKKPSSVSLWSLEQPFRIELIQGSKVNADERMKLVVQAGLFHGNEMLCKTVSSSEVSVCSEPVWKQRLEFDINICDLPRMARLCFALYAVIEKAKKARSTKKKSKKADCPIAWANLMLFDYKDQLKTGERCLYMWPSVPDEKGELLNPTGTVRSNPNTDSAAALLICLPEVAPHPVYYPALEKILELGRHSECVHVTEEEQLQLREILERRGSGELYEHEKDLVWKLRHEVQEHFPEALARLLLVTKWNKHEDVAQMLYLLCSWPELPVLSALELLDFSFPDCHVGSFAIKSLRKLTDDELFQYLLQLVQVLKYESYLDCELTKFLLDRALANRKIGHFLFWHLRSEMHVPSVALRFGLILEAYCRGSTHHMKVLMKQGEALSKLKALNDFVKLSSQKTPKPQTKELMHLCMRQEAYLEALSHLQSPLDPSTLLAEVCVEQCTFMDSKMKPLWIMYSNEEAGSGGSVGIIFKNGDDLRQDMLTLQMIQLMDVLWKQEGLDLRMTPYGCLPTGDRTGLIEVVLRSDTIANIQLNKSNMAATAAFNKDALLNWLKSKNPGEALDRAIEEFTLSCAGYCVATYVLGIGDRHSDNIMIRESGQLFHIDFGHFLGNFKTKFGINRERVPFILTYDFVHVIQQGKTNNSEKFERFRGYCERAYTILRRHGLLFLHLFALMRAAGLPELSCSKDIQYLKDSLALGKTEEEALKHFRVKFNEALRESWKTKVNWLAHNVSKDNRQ
# T4 sequence (P27986 whole entry partner): as the sequence (P27986 whole entry partner) above
IC50 (PI3Kγ),IC50 (PI3Kβ),IC50 (PI3Kα),IC50 (PI3Kδ),Compound
10 to 1000 nM,10 to 1000 nM,10 to 1000 nM,10 to 1000 nM,"CC(c1cc2ccccn2c1C#CCN(C)C)n1nc(-c2cc(O)cc(F)c2)c2c(N)ncnc21 (stereo not shown) [Example 131, 3-[4-amino-1-(1-{3-[3-(dimethylamino)prop-1-yn-1-yl]indolizin-2-yl}ethyl)-1H-pyrazolo[3,4-d]-pyrimidin-3-yl]-5-fluorophenol]"
10 to 1000 nM,10 to 1000 nM,10 to 1000 nM,< 10 nM,"CC(c1cc2ccccn2c1N1CCN(C)CC1=O)n1nc(-c2cc(O)cc(F)c2)c2c(N)ncnc21 (stereo not shown) [Example 132, 1-(2-{1-[4-amino-3-(3-fluoro-5-hydroxyphenyl)-1H-pyrazolo[3,4-d]pyrimidin-1-yl]-ethyl}indolizin-3-yl)-4-methylpiperazin-2-one]"
10 to 1000 nM,10 to 1000 nM,> 1000 nM,< 10 nM,"CC(c1cc2ccccn2c1-c1ccn(CCN(C)C)c(=O)c1)n1nc(-c2cc(O)cc(F)c2)c2c(N)ncnc21 (stereo not shown) [Example 133, 4-(2-{1-[4-amino-3-(3-fluoro-5-hydroxyphenyl)-1H-pyrazolo[3,4-d]pyrimidin-1-yl]-ethyl}indolizin-3-yl)-1-[2-(dimethylamino)-ethyl]-1,2-dihydropyridin-2-one]"
> 1000 nM,10 to 1000 nM,> 1000 nM,< 10 nM,"CC(c1cc2ccccn2c1-c1ccc(=O)n(CCN2CCCC2)n1)n1nc(-c2cc(O)cc(F)c2)c2c(N)ncnc21 (stereo not shown) [Example 134, 6-(2-{1-[4-amino-3-(3-fluoro-5-hydroxyphenyl)-1H-pyrazolo[3,4-d]pyrimidin-1-yl]-ethyl}indolizin-3-yl)-2-[2-(pyrrolidin-1-yl)-ethyl]-2,3-dihydropyridazin-3-one]"
> 1000 nM,10 to 1000 nM,> 1000 nM,10 to 1000 nM,"CC(c1cc2ccccn2c1-c1ccc(=O)n(CCN2CCN(C)CC2)n1)n1nc(-c2cc(O)cc(F)c2)c2c(N)ncnc21 (stereo not shown) [Example 135, 6-(2-{1-[4-amino-3-(3-fluoro-5-hydroxyphenyl)-1H-pyrazolo[3,4-d]pyrimidin-1-yl]-ethyl}indolizin-3-yl)-2-[2-(4-methylpiperazin-1-yl)ethyl]-2,3-dihydropyridazin-3-one]"
> 1000 nM,10 to 1000 nM,10 to 1000 nM,10 to 1000 nM,"CC(c1cc2ccccn2c1-c1ccc(=O)n(CCN2CCOCC2)n1)n1nc(-c2cc(O)cc(F)c2)c2c(N)ncnc21 (stereo not shown) [Example 136, 6-(2-{1-[4-amino-3-(3-fluoro-5-hydroxyphenyl)-1H-pyrazolo[3,4-d]pyrimidin-1-yl]-ethyl}indolizin-3-yl)-2-[2-(morpholin-4-yl)ethyl]-2,3-dihydropyridazin-3-one]"
> 1000 nM,10 to 1000 nM,> 1000 nM,< 10 nM,"CC(c1cc2ccccn2c1-c1ccc(OCCN2CCN(C)CC2)nn1)n1nc(-c2cc(O)cc(F)c2)c2c(N)ncnc21 (stereo not shown) [Example 137, 3-{4-amino-1-[1-(3-{6-[2-(4-methylpiperazin-1-yl)ethoxy]pyridazin-3-yl}indolizin-2-yl)-ethyl]-1H-pyrazolo[3,4-d]pyrimidin-3-yl}-5-fluorophenol]"
10 to 1000 nM,10 to 1000 nM,10 to 1000 nM,< 10 nM,"CC(c1cc2ccccn2c1-c1ccc(OCCN(C)C)nn1)n1nc(-c2cc(O)cc(F)c2)c2c(N)ncnc21 (stereo not shown) [Example 138, 3-{4-amino-1-[1-(3-{6-[2-(dimethylamino)-ethoxy]pyridazin-3-yl}indolizin-2-yl)-ethyl]-1H-pyrazolo[3,4-d]pyrimidin-3-yl}-5-fluorophenol]"
> 1000 nM,10 to 1000 nM,> 1000 nM,10 to 1000 nM,"CC(c1cc2ccccn2c1-c1ccc(OC2CCN(C)CC2)nn1)n1nc(-c2cc(O)cc(F)c2)c2c(N)ncnc21 (stereo not shown) [Example 139, 3-{4-amino-1-[1-(3-{6-[(1-methylpiperidin-4-yl)oxy]pyridazin-3-yl}indolizin-2-yl)ethyl]-1H-pyrazolo-[3,4-d]pyrimidin-3-yl}-5-fluorophenol]"
> 1000 nM,10 to 1000 nM,> 1000 nM,10 to 1000 nM,"CC(c1cc2ccccn2c1-c1ccc(OCCC2CCN(C)CC2)nn1)n1nc(-c2cc(O)cc(F)c2)c2c(N)ncnc21 (stereo not shown) [Example 140, 3-{4-amino-1-[1-(3-{6-[2-(1-methylpiperidin-4-yl)ethoxy]pyridazin-3-yl}indolizin-2-yl)-ethyl]-1H-pyrazolo[3,4-d]pyrimidin-3-yl}-5-fluorophenol]"
10 to 1000 nM,10 to 1000 nM,10 to 1000 nM,< 10 nM,"CC(c1cc2ccccn2c1CN1CCOCC1)n1nc(-c2cc(O)cc(F)c2)c2c(N)ncnc21 (stereo not shown) [Example 141, 3-(4-amino-1-{1-[3-(morpholin-4-ylmethyl)indolizin-2-yl]ethyl}-1H-pyrazolo[3,4-d]-pyrimidin-3-yl)-5-fluorophenol]"
10 to 1000 nM,> 1000 nM,> 1000 nM,10 to 1000 nM,"CC(c1cc2ccccn2c1CN1CCC2(CCCN(C)C2)CC1)n1nc(-c2cc(O)cc(F)c2)c2c(N)ncnc21 (stereo not shown) [Example 142, 3-(4-amino-1-{1-[3-({2-methyl-2,9-diazaspiro[5.5]-undecan-9-yl}methyl)indolizin-2-yl]ethyl}-1H-pyrazolo[3,4-d]-pyrimidin-3-yl)-5-fluorophenol]"
10 to 1000 nM,10 to 1000 nM,10 to 1000 nM,< 10 nM,"CC(c1cc2ccccn2c1CN1CCC2(CCN(C)CC2)CC1)n1nc(-c2cc(O)cc(F)c2)c2c(N)ncnc21 (stereo not shown) [Example 143, 3-(4-amino-1-{1-[3-({9-methyl-3,9-diazaspiro[5.5]undecan-3-yl}methyl)indolizin-2-yl]ethyl}-1H-pyrazolo[3,4-d]pyrimidin-3-yl)-5-fluorophenol]"
10 to 1000 nM,10 to 1000 nM,10 to 1000 nM,10 to 1000 nM,"CC(c1cc2ccccn2c1CN1CC2(CCN(C)CC2)C1)n1nc(-c2cc(O)cc(F)c2)c2c(N)ncnc21 (stereo not shown) [Example 144, 3-(4-amino-1-{1-[3-({7-methyl-2,7-diazaspiro[3.5]nonan-2-yl}methyl)indolizin-2-yl]ethyl}-1H-pyrazolo[3,4-d]pyrimidin-3-yl)-5-fluorophenol]"
10 to 1000 nM,10 to 1000 nM,10 to 1000 nM,10 to 1000 nM,"CC(c1cc2ccccn2c1CN1C[C@H]2CN(C)C[C@H]2C1)n1nc(-c2cc(O)cc(F)c2)c2c(N)ncnc21 (stereo partly drawn) [Example 145, 3-{1-[1-(3-{[(3aR,6aS)-5-methyl-octahydropyrrolo[3,4-c]pyrrol-2-yl]methyl}indolizin-2-yl)ethyl]-4-amino-1H-pyrazolo[3,4-d]pyrimidin-3-yl}-5-fluorophenol]"
> 1000 nM,10 to 1000 nM,10 to 1000 nM,< 10 nM,"CC(c1cc2ccccn2c1-c1ccn(CCN(C)C)n1)n1nc(-c2cc(O)cc(F)c2)c2c(N)ncnc21 (stereo not shown) [Example 147, 3-{4-amino-1-[1-(3-{1-[2-(dimethylamino)-ethyl]-1H-pyrazol-3-yl}indolizin-2-yl)-ethyl]-1H-pyrazolo[3,4-d]pyrimidin-3-yl}-5-fluorophenol]"
10 to 1000 nM,10 to 1000 nM,10 to 1000 nM,< 10 nM,"CC(c1cc2ccccn2c1-c1ccn(CCN2CCN(C)CC2)n1)n1nc(-c2cc(O)cc(F)c2)c2c(N)ncnc21 (stereo not shown) [Example 148, 3-{4-amino-1-[1-(3-{1-[2-(4-methylpiperazin-1-yl)ethyl]-1H-pyrazol-3-yl}indolizin-2-yl)-ethyl]-1H-pyrazolo[3,4-d]pyrimidin-3-yl}-5-fluorophenol]"
10 to 1000 nM,10 to 1000 nM,> 1000 nM,< 10 nM,"CC(c1cc2ccccn2c1-c1ccn(CCN(CCO)CCO)n1)n1nc(-c2cc(O)cc(F)c2)c2c(N)ncnc21 (stereo not shown) [Example 149, 3-(4-amino-1-{1-[3-(1-{2-[bis(2-hydroxyethyl)amino]ethyl}-1H-pyrazol-3-yl)indolizin-2-yl]ethyl}-1H-pyrazolo[3,4-d]pyrimidin-3-yl)-5-fluorophenol]"
10 to 1000 nM,10 to 1000 nM,> 1000 nM,< 10 nM,"CC(c1cc2ccccn2c1-c1ccn(CCN2CCOCC2)n1)n1nc(-c2cc(O)cc(F)c2)c2c(N)ncnc21 (stereo not shown) [Example 150, 3-{4-amino-1-[1-(3-{1-[2-(morpholin-4-yl)ethyl]-1H-pyrazol-3-yl}indolizin-2-yl)ethyl]-1H-pyrazolo-[3,4-d]pyrimidin-3-yl}-5-fluorophenol]"
